Where two headings read alike, the source gives them in different places.
Columns and labels:
[1] = cited from earlier work; for Log10K (iron (III) binding constant): fully deprotonated chelator, independent of pH
S. epidermidis = assay: Anti-Microbial Test 2: in vitro growth inhibition by chelators (optical density at 600 nm); format: cell-based, Staphylococcus epidermidis (axillary isolate); conditions: chelator 5×10^−5 mol.dm^−3 in semi-synthetic medium pH 6.7, 16 hours at 37° C., relative to control medium
Experimental: The chelators indicated in Table 4 were subjected to the following in vitro test for anti-microbial activity against Staphylococcus Epidermididis.
An axillary isolate of S. epidermidis was grown overnight in 100 ml of tryptone soy broth (TSB, ex Oxoid Ltd.). 10 ml of this culture was taken and subjected to centrifugation. The separated cells were re-suspended in 10 ml of phosphate-buffered saline and the centrifugation procedure repeated. The washed cells were re-suspended in 10 ml of phosphate-buffered saline to give the inoculum.
100 ml of semi-synthetic medium (SSM) [containing (NH4)2SO4 (0.066 g), MgSO4.7H2O (0.012 g), KCl (0.1 g), KH2PO4 (0.27 g), Na2HPO4 (1.43 g), Thiamin (0.1 mg), Biotin (0.05 mg), Peptone P (0.05 g), Glucose (2.0 mmole)] was sterilised by autoclaving at 121° C. for 20 minutes. After sterilisation, the pH was adjusted to 6.7 with HCl to give the control medium. The chelator-containing test media were prepared in a similar manner, the chelator being introduced at a concentration of 5×10^−5 mol.dm^−3, before the pH adjustment with HCl.
100 μl of the inoculum was introduced into each of the test media and the control medium. The cultures were incubated at 37° C. (with agitation at 200 rpm) for 16 hours. After this time, the optical density of the cultures were measured at 600 nm to determine the extent of bacterial growth. By comparing the optical density of the culture in the presence of chelating agent to that of the control, the percentage inhibition of growth was established for each of the chelators. (Optical density measurements were made on 1 in 4 dilutions of the cultures with 0.9% (w/v) saline, using 1 cm path length cuvettes, on a Pharmacia Biotech Ultrospec 200 Spectrophotometer.)

[2] = system: Staphylococcus epidermidis; conditions: cited from earlier work
[3] = literature values, 80% or greater reduction in growth over 16 to 24 hours at 37° C.

Row | SMILES | iron (III) binding constant ([1]; Critical Stability Constants, Martell and Smith, 1974) | Log10K (iron (III) binding constant) [1] | Inhibition of growth (%) (S. epidermidis) | MIC ([2]; stated by contrast, no source given) | MIC [2, 3]
1 | O=C(O)CC(NCCNC(CC(=O)O)C(=O)O)C(=O)O (mixture of isomers) [EDDS, N,N-ethylenediaminedisuccinic acid, reference compound] | 10^22 | 22.0 | 18 |  | 
2 | O=C(O)CN(CC(=O)O)[C@@H]1CCCC[C@H]1N(CC(=O)O)CC(=O)O (relative stereo) [CDTA, trans-1,2-diaminocyclohexane-N, N,N′,N′-tetraacetic acid] |  | 28.05 | >70 |  | 
3 | O=C(O)CN(CCN(CC(=O)O)CC(=O)O)CCN(CC(=O)O)CC(=O)O [DTPA, diethylenetriaminepentaacetic acid] |  | 28.6 | >70 |  | 
4 | O=C(O)C(NCCNC(C(=O)O)c1ccccc1O)c1ccccc1O (centres unmarked) [EDDHA, N,N′-ethylenebis[2-(2-hydroxyphenyl)glycine]] |  | 35.5 | >70 |  | 
5 | O=C(O)CN(CCN(CC(=O)O)CC(=O)O)CC(=O)O [EDTA, ethylenediaminetetraacetic acid] |  | 25.1 | >70 |  | 
6 | O=C(O)CN(CCOCCOCCN(CC(=O)O)CC(=O)O)CC(=O)O [EGTA, Ethyleneglycol-O,O′-bis-(2-aminoethyl)-N,N,N′,N′-tetraacetic acid, reference compound] |  | 20.5 | 21 |  | 
7 | O=C(O)CN(CC(=O)O)CC(=O)O [NTA, Nitrilotriacetic acid, reference compound] |  | 15.9 | 6 |  | 
8 | O=C(O)CN(CCN(CCN(CC(=O)O)CC(=O)O)CC(=O)O)CCN(CC(=O)O)CC(=O)O [TTHA, triethylenetetraaminehexaacetic acid] |  | 26.8 | >70 |  | 
9 | CCO [ethanol] |  |  |  | greater than 1 mg.ml^−1 | 
10 | CC(C)=CCCC(C)=CCCC(C)=CCO [farnesol, 3,7,11-trimethyldodeca-2,6,10-trienol] |  |  |  |  | ca. 25 μg.ml^−1
11 | Oc1cc(Cl)ccc1Oc1ccc(Cl)cc1Cl [triclosan, 2′,4,4′-trichloro,2-hydroxy-diphenyl ether] |  |  |  |  | 0.01 to 10 µg/mL
